Laboratory results from patent US11912693B2, “Compounds for modulating S1P1 activity and methods of using the same” (TREVENA, INC., priority 2017, dated 2024).

Tests used:
[1] = molecular target: T1, human sphingosine-1-phosphate receptor 1 (S1P1) (Homo sapiens (Human), UniProt P21453); assay: Inhibition of cAMP production (HTRF cAMP HiRange), S1P1 CHO-K1 cells; format: cell-based; settings: for Emax: CHO-K1, efficacy (SPAN) normalized to fingolimod, read-out: hS1P1 cAMP SPAN
Procedure, shortened: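 CHO-K1 cells stably co-expressing human S1P1 (C-terminal Prolink tag) and EA-β-arrestin2 were grown in AssayComplete Media 6 at 37° C. and 5% CO2, plated, and incubated overnight. Agonist-driven inhibition of intracellular cAMP was read by TR-FRET with the HTRF cAMP HiRange kit on a PheraStar reader. Potency is pEC50, and efficacy (SPAN) is normalized to fingolimod.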
Target sequence in this assay (P21453 whole entry, looked up): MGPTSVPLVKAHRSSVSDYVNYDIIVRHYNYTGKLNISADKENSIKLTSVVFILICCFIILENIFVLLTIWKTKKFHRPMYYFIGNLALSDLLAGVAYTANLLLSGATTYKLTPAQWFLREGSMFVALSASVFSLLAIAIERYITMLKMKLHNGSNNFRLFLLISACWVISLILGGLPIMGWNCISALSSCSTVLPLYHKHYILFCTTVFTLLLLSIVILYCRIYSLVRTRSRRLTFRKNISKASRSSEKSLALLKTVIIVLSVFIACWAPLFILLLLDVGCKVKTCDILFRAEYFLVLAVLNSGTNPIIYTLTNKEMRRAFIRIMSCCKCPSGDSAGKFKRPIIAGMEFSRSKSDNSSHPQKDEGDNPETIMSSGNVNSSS

[2] = molecular target: T1, human sphingosine-1-phosphate receptor 1 (S1P1); assay: β-Arrestin2 recruitment assay (PathHunter), S1P1 CHO-K1 cells; format: cell-based; settings: for Emax: CHO-K1, efficacy (SPAN) normalized to fingolimod, read-out: hS1P1 B-arrestin2 SPAN
Procedure, shortened: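 Enzyme-fragment complementation read-out: agonist-driven β-arrestin2 binding to ProLink-tagged human S1P1 in stable CHO-K1 cells restores β-galactosidase, measured 1 h at room temperature after a 60 min 37° C. compound incubation. Potency as pEC50, efficacy relative to fingolimod (SPAN).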
Target sequence in this assay (P21453 whole entry, looked up): as above
Target sequence in this assay (P32121 whole entry partner, looked up): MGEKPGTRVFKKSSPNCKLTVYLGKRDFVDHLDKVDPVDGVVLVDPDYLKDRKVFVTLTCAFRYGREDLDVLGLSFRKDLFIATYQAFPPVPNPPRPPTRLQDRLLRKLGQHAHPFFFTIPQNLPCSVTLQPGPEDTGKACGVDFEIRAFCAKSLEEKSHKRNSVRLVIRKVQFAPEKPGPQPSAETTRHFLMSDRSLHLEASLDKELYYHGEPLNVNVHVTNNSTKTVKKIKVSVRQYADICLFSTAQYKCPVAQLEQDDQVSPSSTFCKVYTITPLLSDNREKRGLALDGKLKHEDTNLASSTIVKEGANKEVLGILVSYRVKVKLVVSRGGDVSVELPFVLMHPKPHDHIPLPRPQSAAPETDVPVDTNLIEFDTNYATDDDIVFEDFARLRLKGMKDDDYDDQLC

[3] = inhibition of cAMP production, S1P1 CHO-K1 cells
[4] = β-arrestin2 recruitment, S1P1 CHO-K1 cells

| Emax [1] [%] | hS1P1 cAMP pEC50 [1, 3] | Emax [2] [%] | hS1P1 B-arrestin2 pEC50 [2, 4] | EC50 ([1]; inhibition of cAMP production, S1P1 CHO-K1 cells, read-out: hS1P1 cAMP pEC50 (converted)) [nM] | EC50 ([2]; β-arrestin2 recruitment, S1P1 CHO-K1 cells, read-out: hS1P1 B-arrestin2 pEC50 (converted)) [µM] | SMILES |
| --- | --- | --- | --- | --- | --- | --- |
| < 75 | <6.5 | < 75 | <5 | – | – | CC(C)n1nnc2cc(-c3noc(-c4ccc(COc5ccccc5)cc4)n3)ccc21 [Compound 131, 3-(1-isopropyl-1H-benzo[d][1,2,3]triazol-5-yl)-5-(4-(phenoxymethyl)phenyl)-1,2,4-oxadiazole] |
| – | <6.5 | – | >5 | – | – | COc1cccc(F)c1-c1noc(-c2ccc3c(ccn3C(C)C)c2)n1 [Compound 328, 3-(2-fluoro-6-methoxy-phenyl)-5-(1-isopropylindol-5-yl)-1,2,4-oxadiazole] |
| – | <6.5 | – | <5 | – | – | CC(C)n1nnc2cc(-c3ncc(-c4ccc(F)cc4)s3)ccc21 [Compound 37, 5-(4-fluorophenyl)-2-(1-isopropylbenzotriazol-5-yl)thiazole] |
| > 75 | >6.5 | < 75 | >5 | – | – | CC(C)n1nnc2cc(-c3noc(-c4ccccc4N)n3)ccc21 [Compound 576, 2-{3-[1-(propan-2-yl)-1H-1,2,3-benzotriazol-5-yl]-1,2,4-oxadiazol-5-yl}aniline] |
| < 75 | <6.5 | < 75 | <5 | – | – | CCC1(CC)CC(=O)c2cc(-c3nc(-c4ccc(C)cc4)no3)ccc2O1 [Compound 269, 2,2-diethyl-6-[3-(p-tolyl)-1,2,4-oxadiazol-5-yl]chroman-4-one] |
| – | >6.5 | – | <5 | – | – | CCC1(CC)CC(=O)c2cc(-c3nc(-c4ccc5ncoc5c4)no3)ccc2O1 [Compound 622, 6-(3-(benzo[d]oxazol-6-yl)-1,2,4-oxadiazol-5-yl)-2,2-diethylchroman-4-one] |
| – | >6.5 | – | >5 | – | – | CCC1(CC)CC(=O)c2cc(-c3nc(-c4cccs4)no3)ccc2O1 [Compound 467, 2,2-diethyl-6-(3-(thiophen-2-yl)-1,2,4-oxadiazol-5-yl)chroman-4-one] |
| > 75 | <6.5 | < 75 | >5 | – | – | CC(C)n1ccc2cc(-c3nc(-c4ccccc4OC(F)(F)F)no3)ccc21 [Compound 321, 5-(1-isopropyl-1H-indol-5-yl)-3-(2-(trifluoromethoxy)phenyl)-1,2,4-oxadiazole] |
| – | <6.5 | – | <5 | – | – | C=CCn1nc2ccc(-c3nc(-c4ccccc4)no3)cc2n1 [Compound 39, 5-(3-phenyl-1,2,4-oxadiazol-5-yl)-2-(prop-2-en-1-yl)-2H-1,2,3-benzotriazole] |
| – | <6.5 | – | <5 | – | – | CCC1CC(=O)c2ccc(-c3nc(-c4cccnc4)no3)cc2O1 (stereo not drawn) [Compound 588, 2-ethyl-7-[3-(pyridin-3-yl)-1,2,4-oxadiazol-5-yl]-3,4-dihydro-2H-1-benzopyran-4-one] |
| – | >6.5 | – | >5 | – | – | CC(C)Oc1ccc(-c2noc(-c3ccc4c(c3)nnn4C(C)C)n2)cc1C(F)(F)F [Compound 20, 3-(4-isopropoxy-3-(trifluoromethyl)phenyl)-5-(1-isopropyl-1H-benzo[d][1,2,3]triazol-5-yl)-1,2,4-oxadiazole] |
| – | <6.5 | – | <5 | – | – | Cc1cnc(-c2noc(-c3ccc4c(c3)nnn4C(C)C)n2)cn1 [Compound 157, 5-[3-(5-methylpyrazin-2-yl)-1,2,4-oxadiazol-5-yl]-1-(propan-2-yl)-1H-1,2,3-benzotriazole] |
| – | <6.5 | – | >5 | – | – | CC(C)(CO)Cn1nnc2cc(-c3noc(-c4cnccc4C(F)(F)F)n3)ccc21 [Compound 529, 2,2-dimethyl-3-(5-(5-(4-(trifluoromethyl)pyridin-3-yl)-1,2,4-oxadiazol-3-yl)-1H-benzo[d][1,2,3]triazol-1-yl)propan-1-ol] |
| < 75 | >6.5 | > 75 | >5 | – | – | Cc1ccsc1-c1noc(-c2ccc3c(c2)nnn3CC(C)C)n1 [Compound 75, 1-(2-methylpropyl)-5-[3-(3-methylthiophen-2-yl)-1,2,4-oxadiazol-5-yl]-1H-1,2,3-benzotriazole] |
| > 75 | >6.5 | > 75 | >5 | – | – | CCC1(CC)CC(=O)c2cc(-c3nc(-c4ccccc4C)no3)ccc2O1 [Compound 66, 2,2-diethyl-6-(3-(o-tolyl)-1,2,4-oxadiazol-5-yl)chroman-4-one] |
| < 75 | – | < 75 | – | > 316 | > 10 | COC(=O)C12C3C4C1C1C2C3C41c1nc(-c2ccc3c(c2)nnn3C(C)C)no1 (stereo not drawn) [Compound 378] |
| – | <6.5 | – | <5 | – | – | Cc1ccccc1-c1noc(-c2ccc3scnc3c2)n1 [Compound 362, 5-[3-(2-methylphenyl)-1,2,4-oxadiazol-5-yl]-1,3-benzothiazole] |
| > 75 | >6.5 | > 75 | >5 | – | – | CC(C)n1ncc2cc(-c3nc(-c4cccc5c4OCCC5)no3)ccc21 [Compound 337, 3-chroman-8-yl-5-(1-isopropylindazol-5-yl)-1,2,4-oxadiazole] |
| < 75 | <6.5 | < 75 | >5 | – | – | Cn1nnc2cc(-c3noc(-c4ccccc4Br)n3)ccc21 [Compound 73, 5-(2-bromophenyl)-3-(1-methyl-1H-benzo[d][1,2,3]triazol-5-yl)-1,2,4-oxadiazole] |
| > 75 | >6.5 | > 75 | <5 | – | – | COc1cccc2oc(-c3ccc4c(c3)nnn4C(C)C)nc12 [Compound 424, 2-(1-isopropyl-1H-benzo[d][1,2,3]triazol-5-yl)-4-methoxybenzo[d]oxazole] |
| > 75 | >6.5 | > 75 | >5 | – | – | CC(C)n1nnc2cc(-c3nc(-c4ccccc4OC(F)(F)F)no3)ccc21 [Compound 132, 5-(1-isopropyl-1H-benzo[d][1,2,3]triazol-5-yl)-3-(2-(trifluoromethoxy)phenyl)-1,2,4-oxadiazole] |
| – | <6.5 | – | <5 | – | – | CCC1(CC)CC(=O)c2cc(-c3ncc(-c4ccnc(O)c4)cn3)ccc2O1 [Compound 552, 2,2-diethyl-6-(5-(2-hydroxypyridin-4-yl)pyrimidin-2-yl)chroman-4-one] |
| < 75 | <6.5 | < 75 | <5 | – | – | COc1cc(C)c(-c2noc(-c3ccc4c(c3)nnn4C(C)C)n2)c(OC)c1 [Compound 136, 5-[3-(2,4-dimethoxy-6-methylphenyl)-1,2,4-oxadiazol-5-yl]-1-(propan-2-yl)-1H-1,2,3-benzotriazole] |
| – | <6.5 | – | <5 | – | – | Cc1ccncc1-c1nc(-c2ccc3c(c2)nnn3CC(C)(C)CO)no1 [Compound 541, 2,2-dimethyl-3-(5-(5-(4-methylpyridin-3-yl)-1,2,4-oxadiazol-3-yl)-1H-benzo[d][1,2,3]triazol-1-yl)propan-1-ol] |
